Where a name gives a salt, the structure may show the parent alone.
biological target: T1, ZAP-70 (Homo sapiens, UniProt P43403); test: ZAP-70 kinobeads assay; format: binding; conditions: cell lysate
T1 construct: endogenous in cells; host or cells: cell lysate
T1 sequence (P43403 1-619): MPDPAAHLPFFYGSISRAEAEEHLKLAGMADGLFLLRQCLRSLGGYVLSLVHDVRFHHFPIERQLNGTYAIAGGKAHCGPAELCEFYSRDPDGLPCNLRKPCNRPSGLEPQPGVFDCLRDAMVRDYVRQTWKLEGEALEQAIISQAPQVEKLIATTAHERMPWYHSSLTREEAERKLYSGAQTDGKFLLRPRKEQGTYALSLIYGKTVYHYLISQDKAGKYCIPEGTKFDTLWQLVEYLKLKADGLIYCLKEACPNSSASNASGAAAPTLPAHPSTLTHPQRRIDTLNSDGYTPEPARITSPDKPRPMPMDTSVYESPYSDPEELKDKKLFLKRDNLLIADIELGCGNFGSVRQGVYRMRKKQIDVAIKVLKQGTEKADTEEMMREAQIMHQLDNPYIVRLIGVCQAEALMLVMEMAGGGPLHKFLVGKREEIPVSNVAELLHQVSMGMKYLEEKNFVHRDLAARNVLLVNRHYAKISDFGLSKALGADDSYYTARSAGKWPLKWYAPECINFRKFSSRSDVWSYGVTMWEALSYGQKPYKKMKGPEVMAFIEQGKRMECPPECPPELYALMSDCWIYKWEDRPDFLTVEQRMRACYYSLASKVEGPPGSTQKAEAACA
Procedure: The compounds of the present invention as described in the previous examples can be tested in the ZAP-70 kinobeads assay as described (EP-A 1862802 and WO-A 2007/137867). Briefly, test compounds (at various concentrations) and the affinity matrix with the immobilized aminopyrido-pyrimidine ligand 24 are added to cell lysate aliquots and allowed to bind to the proteins in the lysate sample. After the incubation time the beads with captured proteins are separated from the lysate. Bound proteins are then eluted and the presence ZAP-70 is detected and quantified using a specific antibody in a dot blot procedure and the Odyssey infrared detection system.

SMILES | IC50
COc1ccc(Nc2nc(Nc3ccccc3F)ncc2Cl)c(NS(C)(=O)=O)c1 [Example 48, N-(2-(5-chloro-2-(2-fluorophenylamino)pyrimidin-4-ylamino)-5-methoxyphenyl)methanesulfonamide] | 0.1 to 1 µM
COc1ccc(OCCO)cc1Nc1ncc(Cl)c(Nc2cccc(F)c2NS(C)(=O)=O)n1 [Example 116, N-(2-(5-chloro-2-(5-(2-hydroxyethoxy)-2-methoxyphenylamino)pyrimidin-4-ylamino)-6-fluorophenyl)methanesulfonamide] | 0.1 to 1 µM
COc1ccc(OCCO)cc1Nc1ncc(Cl)c(Nc2cccc(OC)c2NS(C)(=O)=O)n1 [Example 119, N-(2-(5-chloro-2-(5-(2-hydroxyethoxy)-2-methoxyphenylamino)pyrimidin-4-ylamino)-6-methoxyphenyl)methanesulfonamide] | 0.1 to 1 µM
COc1ccc(Nc2nc(Nc3cc(OC)cc(CO)c3OC)ncc2Cl)c(NS(C)(=O)=O)c1 [Example 96, N-(2-((5-chloro-2-((3-(hydroxymethyl)-2,5-dimethoxyphenyl)amino)pyrimidin-4-yl)amino)-5-methoxyphenyl)methanesulfonamide] | 0.1 to 1 µM
COc1ccc(Nc2ncc(Cl)c(Nc3ccc(OC)cc3NS(C)(=O)=O)n2)c(O)c1 [Example 41, N-(2-(5-chloro-2-(2-hydroxy-4-methoxyphenylamino)pyrimidin-4-ylamino)-5-methoxyphenyl)methanesulfonamide] | 0.1 to 1 µM
CS(=O)(=O)Nc1ccccc1Nc1nc(Nc2ccccc2O)ncc1Br [Example 20, N-(2-(5-bromo-2-(2-hydroxyphenylamino)pyrimidin-4-ylamino)phenyl)methanesulfonamide hydrochloride] | 0.1 to 1 µM
COc1ccc(OCCO)cc1Nc1ncc(Cl)c(Nc2ccccc2NS(C)(=O)=O)n1 [Example 109, N-(2-(5-chloro-2-(5-(2-hydroxyethoxy)-2-methoxyphenylamino)pyrimidin-4-ylamino)phenyl)methanesulfonamide] | 0.1 to 1 µM
COc1ccc(OCCO)cc1Nc1ncc(Cl)c(Nc2cccc(C)c2NS(C)(=O)=O)n1 [Example 118, N-(2-(5-chloro-2-(5-(2-hydroxyethoxy)-2-methoxyphenylamino)pyrimidin-4-ylamino)-6-methylphenyl)methanesulfonamide] | 0.1 to 1 µM
COc1ccc(Nc2nc(Nc3ccc(OC)cc3OC)ncc2Cl)c(NS(C)(=O)=O)c1 [Example 34, N-(2-(5-chloro-2-(2,4-dimethoxyphenylamino)pyrimidin-4-ylamino)-5-methoxyphenyl)methanesulfonamide] | 0.1 to 1 µM
COc1ccccc1Nc1ncc(Br)c(Nc2ccccc2NS(C)(=O)=O)n1 [Example 21, N-(2-(5-bromo-2-(2-methoxyphenylamino)pyrimidin-4-ylamino)phenyl)methanesulfonamide hydrochloride] | 0.1 to 1 µM
COc1ccc(C)c(Nc2ncc(F)c(Nc3ccccc3NS(C)(=O)=O)n2)c1 [Example 13, N-(2-(5-fluoro-2-(5-methoxy-2-methylphenylamino)pyrimidin-4-ylamino)phenyl)methanesulfonamide] | 1 to 10 µM
COc1cc(OC)c(OC)cc1Nc1ncc(Br)c(Nc2ccccc2NS(C)(=O)=O)n1 [Example 31, N-(2-(5-bromo-2-(2,4,5-trimethoxyphenylamino)pyrimidin-4-ylamino)phenyl)methanesulfonamide] | 0.1 to 1 µM
COc1ccc(Nc2nc(Nc3cc(OC)ccc3OC)ncc2Br)c(NS(C)(=O)=O)c1 [Example 23, N-(2-(5-bromo-2-(2,5-dimethoxyphenylamino)pyrimidin-4-ylamino)-5-methoxyphenyl)methanesulfonamide] | 0.1 to 1 µM
COc1ccc(Nc2ncc(Cl)c(Nc3ccc(OC)cc3NS(C)(=O)=O)n2)c(C)c1 [Example 35, N-(2-(5-chloro-2-(4-methoxy-2-methylphenylamino)pyrimidin-4-ylamino)-5-methoxyphenyl)methanesulfonamide] | 0.1 to 1 µM
COc1ccc(Nc2nc(Nc3cncc(OC)c3OC)ncc2Cl)c(NS(C)(=O)=O)c1 [Example 81, N-(2-(5-chloro-2-(4,5-dimethoxypyridin-3-ylamino)pyrimidin-4-ylamino)-5-methoxyphenyl)methanesulfonamide] | 1 to 10 µM
COc1ccc(Nc2nc(Nc3cc4c(cc3OC)OCCO4)ncc2Cl)c(NS(C)(=O)=O)c1 [Example 40, N-(2-(5-chloro-2-(7-methoxy-2,3-dihydrobenzo[b][1,4]dioxin-6-ylamino)pyrimidin-4-ylamino)-5-methoxyphenyl)methanesulfonamide] | 0.1 to 1 µM
COc1ccc(OC)c(Nc2ncc(F)c(Nc3ccccc3NS(C)(=O)=O)n2)c1 [Example 15, N-(2-(2-(2,5-dimethoxyphenylamino)-5-fluoropyrimidin-4-ylamino)phenyl)methanesulfonamide] | 1 to 10 µM
COc1ccc(OCCO)cc1Nc1ncc(F)c(Nc2ccccc2NS(C)(=O)=O)n1 [Example 102, N-(2-(5-fluoro-2-(5-(2-hydroxyethoxy)-2-methoxyphenylamino)pyrimidin-4-ylamino)phenyl)methanesulfonamide] | 1 to 10 µM
COc1ccc(Nc2nc(Nc3ccc(C)cc3C)ncc2Cl)c(NS(C)(=O)=O)c1 [Example 59, N-(2-(5-chloro-2-(2,4-dimethylphenylamino)pyrimidin-4-ylamino)-5-methoxyphenyl)methanesulfonamide hydrochloride] | 0.1 to 1 µM
CS(=O)(=O)Nc1ccccc1Nc1nc(Nc2ccccc2Cl)ncc1Br [Example 18, N-(2-(5-bromo-2-(2-chlorophenylamino)pyrimidin-4-ylamino)phenyl)methanesulfonamide hydrochloride] | 1 to 10 µM
COc1ccc(Nc2ncc(Br)c(Nc3ccccc3NS(C)(=O)=O)n2)c(OC)c1 [Example 26, N-(2-(5-bromo-2-(2,4-dimethoxyphenylamino)pyrimidin-4-ylamino)phenyl)methanesulfonamide] | 0.1 to 1 µM

Continued, values first:

IC50 | SMILES
0.1 to 1 µM | COc1ccc(Nc2nc(Nc3ccc(F)cc3OC)ncc2Cl)c(NS(C)(=O)=O)c1 [Example 43, N-(2-(5-chloro-2-(4-fluoro-2-methoxyphenylamino)pyrimidin-4-ylamino)-5-methoxyphenyl)methanesulfonamide]
≤ 0.1 µM | COc1ccc(Nc2nc(Nc3cc(OCCO)ccc3OC)ncc2Br)c(NS(C)(=O)=O)c1 [Example 117, N-(2-((5-bromo-2-((5-(2-hydroxyethoxy)-2-methoxyphenyl)amino)pyrimidin-4-yl)amino)-5-methoxyphenyl)methanesulfonamide]
0.1 to 1 µM | COc1ccc(Nc2nc(Nc3cccc(OC)c3OC)ncc2Cl)c(NS(C)(=O)=O)c1 [Example 44, N-(2-(5-chloro-2-(2,3-dimethoxyphenylamino)pyrimidin-4-ylamino)-5-methoxyphenyl)methanesulfonamide]
0.1 to 1 µM | COc1ccc(Nc2nc(Nc3cccc(OC)c3C)ncc2Cl)c(NS(C)(=O)=O)c1 [Example 54, N-(2-(5-chloro-2-(3-methoxy-2-methylphenylamino)pyrimidin-4-ylamino)-5-methoxyphenyl)methanesulfonamide]
0.1 to 1 µM | COc1ccc(Nc2nc(Nc3ccc(C)cc3OC)ncc2Cl)c(NS(C)(=O)=O)c1 [Example 62, N-(2-(5-chloro-2-(2-methoxy-4-methylphenylamino)pyrimidin-4-ylamino)-5-methoxyphenyl)methanesulfonamide hydrochloride]
1 to 10 µM | CS(=O)(=O)Nc1ccccc1Nc1nc(Nc2ccccc2F)ncc1F [Example 1, N-(2-(5-fluoro-2-(2-fluorophenylamino)pyrimidin-4-ylamino)phenyl)methanesulfonamide]
0.1 to 1 µM | COc1ccc(Nc2nc(Nc3ccc(OC)nc3OC)ncc2Cl)c(NS(C)(=O)=O)c1 [Example 36, N-(2-(5-chloro-2-(2,6-dimethoxypyridin-3-ylamino)pyrimidin-4-ylamino)-5-methoxyphenyl)methanesulfonamide]
≤ 0.1 µM | COc1ccc(Nc2nc(Nc3cnc(O)cc3OC)ncc2Cl)c(NS(C)(=O)=O)c1 [Example 78, N-(2-(5-chloro-2-(6-hydroxy-4-methoxypyridin-3-ylamino)pyrimidin-4-ylamino)-5-methoxyphenyl)methanesulfonamide]
≤ 0.1 µM | COc1ccc(Nc2nc(Nc3ccc(OCC(N)=O)cc3C)ncc2Cl)c(NS(C)(=O)=O)c1 [Example 90, 2-(4-((5-chloro-4-((4-methoxy-2-(methylsulfonamido)phenyl)amino)pyrimidin-2-yl)amino)-3-methylphenoxy)acetamide]
1 to 10 µM | COc1cccc(Nc2ncc(Br)c(Nc3ccccc3NS(C)(=O)=O)n2)c1OC [Example 9, N-(2-(5-bromo-2-(2,3-dimethoxyphenylamino)pyrimidin-4-ylamino)phenyl)methanesulfonamide]
≤ 0.1 µM | COc1ccc(Nc2nc(Nc3cc(OC)c(CC(=O)O)cc3OC)ncc2Cl)c(NS(C)(=O)=O)c1 [Example 100, 2-(4-((5-chloro-4-((4-methoxy-2-(methylsulfonamido)phenyl)amino)pyrimidin-2-yl)amino)-2,5-dimethoxyphenyl)acetic acid]

Source: patent US20120142667A1, “PYRIMIDINE DERIVATIVES AS ZAP-70 INHIBITORS” (priority 2009, published 2012)
